Measurements from patent US8580764B2, “Combinational compositions and methods for treatment of cancer” (ArQule, Inc., priority 2010, dated 2013).
Read-outs that look alike come from different tables or passages of the source.

Assays:
cancer cells [1] = assay: Cell cycle analysis of dosing regimen A (FIG. 8); type: cell-based; conditions: dosing regimen A of FIG. 3
Protocol: (§1) Cells were plated on day 0.

cell cycle check point = assay: Activation of cell cycle check point during dosing regimen A (FIG. 9); type: cell-based; conditions: dosing regimen A of FIG. 3
Protocol: as §1

cancer cells [2] = conditions: cited from earlier work
human tumors = conditions: multiple mouse xenograft efficacy studies; cited from earlier work
c-Met = molecular target: T1, c-Met (Homo sapiens, UniProt P08581); conditions: c-Met expressing cancer cell lines; cited from earlier work
T1 construct: Exposure of c-Met expressing cancer cell lines; endogenous in cells
T1 sequence (P08581 25-1390): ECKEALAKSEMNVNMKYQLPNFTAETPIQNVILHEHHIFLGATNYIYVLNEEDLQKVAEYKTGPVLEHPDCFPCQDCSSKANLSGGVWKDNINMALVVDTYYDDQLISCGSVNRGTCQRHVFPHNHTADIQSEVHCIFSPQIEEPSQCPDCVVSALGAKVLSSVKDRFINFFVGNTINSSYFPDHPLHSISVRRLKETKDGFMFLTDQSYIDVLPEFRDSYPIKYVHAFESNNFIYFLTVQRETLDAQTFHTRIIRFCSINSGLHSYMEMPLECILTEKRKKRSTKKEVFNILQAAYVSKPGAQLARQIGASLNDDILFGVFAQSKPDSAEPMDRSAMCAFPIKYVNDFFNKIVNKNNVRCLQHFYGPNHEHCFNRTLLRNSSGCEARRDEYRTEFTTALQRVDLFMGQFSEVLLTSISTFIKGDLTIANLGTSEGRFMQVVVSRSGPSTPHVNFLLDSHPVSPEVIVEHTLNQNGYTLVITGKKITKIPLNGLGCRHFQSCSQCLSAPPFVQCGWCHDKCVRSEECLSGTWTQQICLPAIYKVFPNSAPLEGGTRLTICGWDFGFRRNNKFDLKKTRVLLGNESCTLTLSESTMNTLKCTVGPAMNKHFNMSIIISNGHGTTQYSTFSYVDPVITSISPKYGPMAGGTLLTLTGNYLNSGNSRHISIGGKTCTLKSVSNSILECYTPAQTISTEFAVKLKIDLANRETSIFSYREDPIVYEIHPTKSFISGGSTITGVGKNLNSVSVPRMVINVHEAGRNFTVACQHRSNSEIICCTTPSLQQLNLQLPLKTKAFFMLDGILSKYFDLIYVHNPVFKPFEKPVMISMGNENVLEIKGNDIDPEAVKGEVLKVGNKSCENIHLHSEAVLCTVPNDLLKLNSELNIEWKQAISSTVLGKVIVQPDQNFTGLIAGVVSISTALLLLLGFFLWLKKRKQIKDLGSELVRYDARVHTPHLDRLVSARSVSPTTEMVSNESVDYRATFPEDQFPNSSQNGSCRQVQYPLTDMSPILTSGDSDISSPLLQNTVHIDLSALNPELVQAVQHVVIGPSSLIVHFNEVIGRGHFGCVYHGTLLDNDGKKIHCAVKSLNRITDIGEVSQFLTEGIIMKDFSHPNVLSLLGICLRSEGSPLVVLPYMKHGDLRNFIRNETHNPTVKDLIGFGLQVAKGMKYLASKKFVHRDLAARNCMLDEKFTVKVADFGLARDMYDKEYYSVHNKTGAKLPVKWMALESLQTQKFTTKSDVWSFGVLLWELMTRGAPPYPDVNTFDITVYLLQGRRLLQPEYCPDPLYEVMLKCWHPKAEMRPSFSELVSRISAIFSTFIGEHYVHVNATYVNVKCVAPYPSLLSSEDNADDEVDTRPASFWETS

Compound	cell cycle arrest (cancer cells [1])	activation of cell cycle check point (cell cycle check point)	cell cycle arrest (cancer cells [2])	growth of human tumors (human tumors)	phospho-c-Met levels and cell death (c-Met)
Nc1ccn([C@@H]2O[C@H](CO)[C@@H](O)C2(F)F)c(=O)n1 [gemcitabine]	S-phase arrest	activation of cell cycle check point	arrest cancer cells in G1/S phase		
O=C1NC(=O)[C@@H](c2cn3c4c(cccc24)CCC3)[C@@H]1c1c[nH]c2ccccc12 [Agent A, (−)-trans-3-(5,6-dihydro-4H-pyrrolo[3,2,1-ij]quinolin-1-yl)-4-(1H-indol-3-yl)pyrrolidine-2,5-dione]	G2/M arrest			inhibited the growth of human tumors	decrease in phospho-c-Met levels with eventual apoptotic cell death
